We go through five compounds from ChEMBL document CHEMBL1201862, “PubChem BioAssay data set” (2004).

The nature of assay [1]: Dd2 parasite growth inhibition in erythrocytes – SYBR Green, dry powder samples, set 4, dose response (AID 1159572). Type of assay: functional, cell-based.
The nature of assay [2]: growth inhibition of PfATP4-mutant resistant parasites – NITD609-resistant line, SYBR Green, dry powder, dose response (AID 1159571).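 Further: parasites synchronized at ring stage by sorbitol before testing.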 Type of assay: functional, cell-based.
A short description of assay [3]: growth inhibition of yeast DHODH-expressing 3D7 parasites – SYBR Green, dry powder samples, dose response (AID 1159570).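 Further: parasite growth measured after 72 hours of compound exposure.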 Type of assay: functional, cell-based.
Assay [4] is described as follows: toxicity to human HepG2 hepatoma cells – cell-based, plate reader, dry powder samples, cytotoxicity control, dose response (AID 1159569).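 Further: inhibitor potency with signal falling toward the positive control level.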 Type of assay: functional.
Assay [5] in a line: antimalarial activity against Dd2 parasites – SYBR Green fluorescence, erythrocytes, dry powder, set 2, dose response (AID 1159574). Type of assay: functional, cell-based.
A short description of assay [6]: Dd2 malaria parasite growth inhibition potency – SYBR Green, dry powder samples, dose response (AID 1159566).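 Further: potency for growth inhibition with lower SYBR green DNA signal.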 Type of assay: functional, cell-based.
A short description of assay [7]: P. falciparum Dd2 growth inhibitors, dose response, SYBR Green, cherry-picked samples (AID 1159567). Type of assay: functional, cell-based.
Assay [8] can be described thus: toxicity to human hepatoma HepG2 cells – cell-based, cherry-picked samples, cytotoxicity control, dose response (AID 1159577). Type of assay: functional.
The target in assay [9] is T1, Orexin receptor type 2 (Homo sapiens, UniProt O43614).
T1 sequence (O43614 whole entry): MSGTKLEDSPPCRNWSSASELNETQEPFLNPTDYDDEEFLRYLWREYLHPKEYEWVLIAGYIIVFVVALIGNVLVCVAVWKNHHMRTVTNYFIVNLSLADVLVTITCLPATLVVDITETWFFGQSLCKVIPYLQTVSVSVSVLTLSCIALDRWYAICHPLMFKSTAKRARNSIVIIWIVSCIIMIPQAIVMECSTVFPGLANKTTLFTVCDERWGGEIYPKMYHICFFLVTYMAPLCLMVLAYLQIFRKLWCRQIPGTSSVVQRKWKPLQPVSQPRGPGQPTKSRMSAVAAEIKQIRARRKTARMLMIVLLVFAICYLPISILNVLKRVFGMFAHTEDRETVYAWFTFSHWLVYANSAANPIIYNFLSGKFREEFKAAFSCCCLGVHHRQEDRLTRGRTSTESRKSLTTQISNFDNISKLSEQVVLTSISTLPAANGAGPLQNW
As to the kind of experiment: Counterscreen assay for antagonists of the orexin 1 receptor (OX1R; HCRTR1): Fluorescence-based cell-based dose response assay for antagonists of the orexin 2 receptor (OX2R; HCRTR2), run by assay provider. Type of assay: functional. On the technique in general: The purpose of a counterscreen is to sort out artefacts and off-target activity.

A further assay has as its system CHO-K1. Kind of assay: Counterscreen for antagonists of the orexin 1 receptor (OX1R; HCRTR1): Homogeneous time resolved fluorescence (HTRF)-based cell-based dose response assay to identify antagonists of the parental CHO-K1 cell line. [Related pubchem assays (depositor defined):AID434989, AID435008, AID463079, AID485270, AID492963, AID492964, AID492965, AID493232, AID504699, AID504701]. Type of assay: functional. To be noted: Cricetulus griseus.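 Further: potency for inhibition of ATP-stimulated IP1 production as antagonists.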

Assay [10] has as its target T1, Orexin receptor type 2. As to the kind of experiment: Counterscreen assay for antagonists of the orexin 1 receptor (OX1R; HCRTR1): Homogeneous Time Resolved Fluorescence (HTRF)-based cell-based dose response assay for antagonists of the orexin 2 receptor (OX2R; HCRTR2), run by assay provider. Type of assay: functional.
The target of assay [11] is T2, Orexin/Hypocretin receptor type 1 (Homo sapiens, UniProt O43613).
T2 sequence (O43613 whole entry): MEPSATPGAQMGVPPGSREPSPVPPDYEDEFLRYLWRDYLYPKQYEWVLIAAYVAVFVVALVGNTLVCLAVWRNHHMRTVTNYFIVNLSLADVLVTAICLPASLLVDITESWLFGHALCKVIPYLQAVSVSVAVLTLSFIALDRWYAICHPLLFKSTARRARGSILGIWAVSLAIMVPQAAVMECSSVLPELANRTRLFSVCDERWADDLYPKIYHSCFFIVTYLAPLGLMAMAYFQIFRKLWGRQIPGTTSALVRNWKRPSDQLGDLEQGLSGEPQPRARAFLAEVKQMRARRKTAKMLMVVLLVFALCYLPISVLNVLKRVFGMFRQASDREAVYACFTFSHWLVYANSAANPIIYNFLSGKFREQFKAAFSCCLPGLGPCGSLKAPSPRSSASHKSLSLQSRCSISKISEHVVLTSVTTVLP
As to the kind of experiment: Fluorescence-based cell-based high throughput dose response assay for antagonists of the orexin 1 receptor (OX1R; HCRTR1). [Related pubchem assays (depositor defined):AID434989, AID435008, AID463079, AID485270, AID492963, AID492964, AID492965, AID493232, AID504717, AID504718]. Type of assay: functional.

Assay [12] addresses T2, Orexin/Hypocretin receptor type 1. As to the kind of experiment: Homogeneous Time Resolved Fluorescence (HTRF)-based cell-based high throughput dose response assay for antagonists of the orexin 1 receptor (OX1R; HCRTR1). [Related pubchem assays (depositor defined):AID434989, AID435008, AID463079, AID485270, AID492963, AID492964, AID492965, AID493232, AID504717, AID504718]. Type of assay: functional.

The nature of assay [13]: Counterscreen for antagonists of the orexin 1 receptor (OX1R; HCRTR1): Fluorescence-based cell-based high throughput dose response assay to identify antagonists of the parental CHO cell line. [Related pubchem assays (depositor defined):AID434989, AID435008, AID463079, AID485270, AID492963, AID492964, AID492965, AID493232, AID504699, AID504701]. Type of assay: functional.

The next assay addresses Kallikrein-7 (Homo sapiens, UniProt P49862). As to the kind of experiment: Fluorescence Intensity-based biochemical primary high throughput dose response assay to identify activators of kallikrein-7 (K7) zymogen.
Assay [14] is described as follows: ATP-based viability loss in HEK293T cells – cell-based, CellTiter-Glo luminescence, dry powder, set 2, cytotoxicity control, dose response (AID 720595). Type of assay: functional. The following applies: HEK293.
A short description of assay [15]: ATP-based viability loss in HepG2 cells – cell-based, CellTiter-Glo luminescence, dry powder, set 3, cytotoxicity control, dose response (AID 720594). Type of assay: functional. (In ATP-based viability assays light output follows the ATP content of the culture.)
Assay [16] relates to Streptococcus sp. 'group A'. Kind of assay: Streptococcus pyogenes SK(-)GAS viability under kanamycin – luminescence, BacTiterGlo, confirmation, counter-screen for streptokinase expression inhibitor project, dose response (AID 1900). Type of assay: functional, organism-based.
Assay [17] can be described thus: dual-tagged ARNT PAS-B bead signal quenchers – biochemical, dry powder, artefact control for ARNT/TACC3 disruptor project, dose response (AID 720564).
A further assay addresses T3, Streptokinase A (Streptococcus pyogenes serotype M1, UniProt P10520).
T3 sequence (P10520 whole entry): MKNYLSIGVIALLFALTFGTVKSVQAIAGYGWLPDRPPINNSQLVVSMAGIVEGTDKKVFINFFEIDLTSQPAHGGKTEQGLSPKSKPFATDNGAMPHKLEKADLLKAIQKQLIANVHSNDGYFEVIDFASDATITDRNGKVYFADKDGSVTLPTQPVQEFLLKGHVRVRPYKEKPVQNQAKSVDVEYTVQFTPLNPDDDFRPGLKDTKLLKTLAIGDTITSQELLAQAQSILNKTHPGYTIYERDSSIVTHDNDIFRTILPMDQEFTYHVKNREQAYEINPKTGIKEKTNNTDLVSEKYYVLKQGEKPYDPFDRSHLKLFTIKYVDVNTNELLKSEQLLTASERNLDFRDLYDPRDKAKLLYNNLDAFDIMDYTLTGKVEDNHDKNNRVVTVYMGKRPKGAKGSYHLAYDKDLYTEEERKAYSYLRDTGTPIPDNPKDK
Kind of assay: viability-normalized secreted streptokinase activity reduction – plasminogen activation absorbance, OD405, dose response (AID 1914).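 Further: secreted streptokinase activity via plasminogen activation per viability signal from cell pellet.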 Type of assay: functional, Streptococcus pyogenes M1 GAS.

The next assay relates to Streptococcus. As to the kind of experiment: GAS UMAA2166 growth inhibition – luminescence, BacTiterGlo, counter-screen for streptokinase expression inhibitor project, dose response (AID 1915).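 Further: potency for reduction of bacterial viability or growth.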 Type of assay: functional, organism-based.
Assay [18] addresses Muscarinic acetylcholine receptor M5 (Homo sapiens, UniProt P08912). As to the kind of experiment: potentiation of ACh response at human M5 – cell-based, concentration-response curve, dose response (AID 651878). Type of assay: functional.
A short description of assay [19]: reduction of Shn3 3'UTR-driven luciferase in osteoblasts – cell-based, Clone20 osteoblasts, firefly luciferase, cherry-picked, dose response (AID 624132).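 Further: firefly luciferase luminescence from reporter carrying the Shn3 3'UTR in osteoblasts.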 Type of assay: functional.
The target of assay [20] is T4, COUP transcription factor 2 (Homo sapiens, UniProt P24468).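 Further: HEK293 cells transiently cotransfected with COUP-TFII expression vector and reporter; luciferase reporter luminescence driven by COUP-TFII from the pX2-168 reporter plasmid.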
T4 sequence (P24468 whole entry): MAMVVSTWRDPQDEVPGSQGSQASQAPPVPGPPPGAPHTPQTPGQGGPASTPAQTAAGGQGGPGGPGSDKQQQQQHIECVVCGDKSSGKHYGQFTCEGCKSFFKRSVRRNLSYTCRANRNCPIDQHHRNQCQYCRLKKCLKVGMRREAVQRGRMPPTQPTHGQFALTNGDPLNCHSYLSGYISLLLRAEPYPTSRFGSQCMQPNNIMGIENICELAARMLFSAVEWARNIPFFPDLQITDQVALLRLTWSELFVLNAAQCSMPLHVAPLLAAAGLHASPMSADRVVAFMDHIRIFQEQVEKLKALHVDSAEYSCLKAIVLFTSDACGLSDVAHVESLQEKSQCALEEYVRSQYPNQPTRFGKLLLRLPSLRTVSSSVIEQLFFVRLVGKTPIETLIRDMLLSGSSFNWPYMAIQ
As to the kind of experiment: Luminescence-based cell-based high throughput dose response assay to identify inhibitors of COUP-TFII (NR2F2). Type of assay: functional.

A short description of assay [21]: rise of 4N DNA cells, HeLa – IC50, dose response (AID 1117351). Type of assay: functional, cell-based.
Assay [22] can be described thus: non-specific 3'UTR reporter inhibition in Clone20-Shn3RL – cell-based, Renilla luciferase, cherry-picked, counter-screen for Shn3 inhibitor project, dose response (AID 624133). Type of assay: functional.
Assay [23] can be described thus: reduced cellular PGC1a acetyl-lysine signal – cell-based, cherry-picked samples, dose response (AID 720514).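 Further: potency may reflect raised or lowered acetylation signal.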 Type of assay: functional.
Assay [24] addresses Heat shock protein HSP 90-alpha (Homo sapiens, UniProt P07900). Type of assay: functional, organism-based.
The nature of assay [25]: rise of 2N DNA cells, HeLa – IC50, dose response (AID 1117349). Type of assay: functional, cell-based.

The source made the active and inactive calls. Where only a bound is given, the exact number is not on record here.

One may read the AC50 as the midpoint of the concentration-response curve, whichever way the signal moves. The IC50 is the midpoint of a concentration-inhibition curve. For orientation: EC50 means the concentration at which the effect is half-maximal.

Chain of Kallikrein-7 (P49862 whole entry): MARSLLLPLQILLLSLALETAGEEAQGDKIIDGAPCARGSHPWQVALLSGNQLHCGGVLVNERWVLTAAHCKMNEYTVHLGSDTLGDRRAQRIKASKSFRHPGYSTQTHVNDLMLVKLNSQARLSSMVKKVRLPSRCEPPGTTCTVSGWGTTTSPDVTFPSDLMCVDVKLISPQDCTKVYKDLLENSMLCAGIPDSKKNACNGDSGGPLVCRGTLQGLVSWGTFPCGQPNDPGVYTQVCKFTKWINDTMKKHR
Chain of Muscarinic acetylcholine receptor M5 (P08912 whole entry): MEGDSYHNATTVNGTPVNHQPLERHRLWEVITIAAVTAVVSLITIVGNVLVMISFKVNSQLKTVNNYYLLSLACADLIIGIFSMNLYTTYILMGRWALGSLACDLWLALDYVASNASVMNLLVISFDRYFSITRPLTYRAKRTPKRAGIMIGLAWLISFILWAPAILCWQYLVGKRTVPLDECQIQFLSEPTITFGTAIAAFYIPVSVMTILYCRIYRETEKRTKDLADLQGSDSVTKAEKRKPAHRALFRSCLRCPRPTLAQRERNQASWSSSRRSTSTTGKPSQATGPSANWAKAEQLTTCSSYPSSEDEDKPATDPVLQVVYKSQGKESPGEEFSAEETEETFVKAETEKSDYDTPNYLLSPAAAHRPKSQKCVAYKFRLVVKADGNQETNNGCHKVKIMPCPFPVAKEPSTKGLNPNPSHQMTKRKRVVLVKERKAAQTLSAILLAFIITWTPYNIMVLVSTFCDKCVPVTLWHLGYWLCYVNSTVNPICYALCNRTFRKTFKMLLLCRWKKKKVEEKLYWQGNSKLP

For `COc1ccc2c3c([nH]c2c1)[C@H](CO)N(C(C)=O)CC31CCN(C(=O)Nc2ccccc2F)CC1`, the AC50 in assay [1] was 101 nM (active); in assay [2], 16.6 nM (active); in assay [3], 26.3 nM (active); in assay [4], 46.9 µM (active); in assay [5], 82.8 nM (active); in [6], 27.9 nM (active). In addition, the AC50 in assay [7] was < 300 nM (active); in assay [8], 33.4 µM (active).
As for `O=C(OC1CCOC1=O)c1ccc(-c2nc3ccccc3s2)s1` (centres undefined), the IC50 on Orexin receptor type 2 [9] was > 88.8 µM (inactive); in the assay on CHO-K1 it was 29.9 µM (inactive); on Orexin receptor type 2 [10], 11.4 µM (inactive); in assay [11], 9.49 µM (active); in [12], 1.98 µM (active); in assay [13] it was > 49.8 µM (inactive). In addition, the EC50 at Kallikrein-7 is > 69.5 µM (inactive).
Turning to `CC1CCCN(S(=O)(=O)c2ccc(C(=O)Nc3nnc(C4=COCCO4)o3)cc2)C1` (centres undefined), the figures for the AC50 in assay [14], in [15] and in assay [17] were 27.6 µM (active), > 52 µM (inactive) and 101 µM (active), respectively. Besides, the EC50 in assay [16] is 4.77 µM (active); on Streptokinase A it was > 150 µM (not active); in the assay on Streptococcus, 98.4 µM (active).
`O=C1C(=O)N(CCCOc2ccccc2)c2ccc(OC(F)(F)F)cc21`: the EC50 in [18] is 1.97 µM (active).
As to `C[C@@H]1C[C@@H]([C@H](O)CC2CC(=O)NC(=O)C2)C(=O)[C@@H](C)C1` [CYCLOHEXIMIDE], the AC50 in assay [19] is 345 nM (active); in assay [22] it was 695 nM (active); in [23] it was 2.23 µM (active); in assay [24] it was < 195 nM (active). Moreover, the IC50 in assay [20] is 1.32 µM (active); in [21] it was > 10 µM (inactive); in [25], > 10 µM (inactive).
